Results taken from EP4722207A1, “OXOISOINDOLINYL-SUBSTITUTED TETRAHYDROPYRIMIDINEDIONE DERIVATIVE AND USE THEREOF” (Gluetacs Therapeutics (Shanghai) Co., Ltd., priority 2023, dated 2024).

Legend:
Format in all cases: cell-based
Conditions in all cases: compounds at 50 nM and 500 nM, 24 hours
WEE1 = target: T1, WEE1 (Homo sapiens, UniProt P30291+Q96SW2); test: Western-blot assay, substrate protein degradation in hPBMCs: WEE1
T1 construct: effects of the compounds of the present disclosure on the expression of target proteins in cells; endogenous in cells; host or cells: human PBMCs (hPBMCs)
Method: (§1) Conventional Western blot assay was performed to evaluate the effects of the compounds of the present disclosure on the expression of target proteins in cells. • (1) Cell Seeding and Protein Harvesting: Human peripheral blood mononuclear cells (hPBMCs) at a density of 1x10^6 cells/mL were thawed according to the PBMC Recovery Protocol (Milecell Biotechnologies Inc, Shanghai). […] After 24 hours of compounds treatment, cells were harvested and lysed in RIPA protein lysate containing protease inhibitors on ice for 30 min, followed by centrifugation. The supernatant was aspirated as the extracted total cell protein. The protein concentration of the supernatant was determined using the conventional BCA (Bicinchoninic Acid) assay. • (2) To the collected supernatant, 5X SDS sample loading buffer was added, followed by denaturation at 95°C for 5 minutes. The denatured samples were then separated by SDS-PAGE electrophoresis on a polyacrylamide gel. Proteins were transferred to a nitrocellulose membrane (0.45 µm NC membrane), blocked with blocking buffer at room temperature for 1 hour, and subjected to antibody incubation and development procedures according to the antibody manufacturer's instructions (Cell Signaling Technology).
(§2) Half-Maximal Degradation Concentration value (the drug concentration required for degrading proteins by 50%, abbreviated as DC50) reads method: comparing the grayscale values of Western blot bands from drug-treated samples with those from blank DMSO-treated controls, and identifying the drug concentration range at which the grayscale value is half that of the DMSO-treated control bands.
(§3) DC50 values can be calculated using ImageJ software to measure grayscale values of Western blot bands from drug-treated samples. The concentration-response curve is fitted to estimate the drug concentration corresponding to half the grayscale value.
(§4) Target protein remaining (%) refers to the percentage of target protein remaining in cells after treatment with protein degrader compounds.
(§5) Calculation method for target protein remaining (%): Use ImageJ software to measure grayscale values of Western blot bands from drug (protein degrader)-treated samples. The grayscale value of drug-treated bands is divided by that of internal control protein bands, and the resulting quotient is normalized to obtain the relative percentage of remaining target protein after protein degrader treatment. Target protein degradation rate(%) = 1−target protein remaining(%). [formula]

IKZF1 = target: T2, IKZF1 (Homo sapiens, UniProt Q13422+Q96SW2); test: Western-blot assay, substrate protein degradation in hPBMCs: IKZF1
T2 construct: effects of the compounds of the present disclosure on the expression of target proteins in cells; endogenous in cells; host or cells: human PBMCs (hPBMCs)
Method: as §1, §2, §3, §4, §5

IKZF2 = target: T3, IKZF2 (Homo sapiens, UniProt Q96SW2+Q9UKS7); test: Western-blot assay, substrate protein degradation in hPBMCs: IKZF2
T3 construct: effects of the compounds of the present disclosure on the expression of target proteins in cells; endogenous in cells; host or cells: human PBMCs (hPBMCs)
Method: as §1, §2, §3, §4, §5

IKZF3 = target: T4, IKZF3 (Homo sapiens, UniProt Q96SW2+Q9UKT9); test: Western-blot assay, substrate protein degradation in hPBMCs: IKZF3
T4 construct: effects of the compounds of the present disclosure on the expression of target proteins in cells; endogenous in cells; host or cells: human PBMCs (hPBMCs)
Method: as §1, §2, §3, §4, §5

CK1α = target: T5, CK1α (Homo sapiens, UniProt P48729+Q96SW2); test: Western-blot assay, substrate protein degradation in hPBMCs: CK1α
T5 construct: effects of the compounds of the present disclosure on the expression of target proteins in cells; endogenous in cells; host or cells: human PBMCs (hPBMCs)
Method: as §1, §2, §3, §4, §5

GSPT1 = target: T6, GSPT1 (Homo sapiens, UniProt P15170+Q96SW2); test: Western-blot assay, substrate protein degradation in hPBMCs: GSPT1
T6 construct: effects of the compounds of the present disclosure on the expression of target proteins in cells; endogenous in cells; host or cells: human PBMCs (hPBMCs)
Method: as §1, §2, §3, §4, §5

T1 sequence (P30291 whole entry): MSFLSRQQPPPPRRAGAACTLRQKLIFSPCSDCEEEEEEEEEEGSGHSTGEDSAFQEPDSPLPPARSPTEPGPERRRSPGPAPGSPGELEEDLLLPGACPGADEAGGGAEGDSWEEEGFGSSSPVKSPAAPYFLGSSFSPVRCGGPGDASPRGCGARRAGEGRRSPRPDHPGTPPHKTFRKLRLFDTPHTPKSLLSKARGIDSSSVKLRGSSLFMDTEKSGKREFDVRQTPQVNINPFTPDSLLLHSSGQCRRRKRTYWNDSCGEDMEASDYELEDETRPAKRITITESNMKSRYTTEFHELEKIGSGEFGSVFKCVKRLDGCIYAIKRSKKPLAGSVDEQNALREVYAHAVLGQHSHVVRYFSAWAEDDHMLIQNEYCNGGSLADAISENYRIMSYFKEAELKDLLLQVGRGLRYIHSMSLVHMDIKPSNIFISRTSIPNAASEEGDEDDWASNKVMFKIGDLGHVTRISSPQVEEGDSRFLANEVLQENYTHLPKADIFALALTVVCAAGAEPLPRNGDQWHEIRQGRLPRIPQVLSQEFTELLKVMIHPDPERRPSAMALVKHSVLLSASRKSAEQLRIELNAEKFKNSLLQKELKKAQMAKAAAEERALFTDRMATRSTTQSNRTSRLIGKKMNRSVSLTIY
T1 sequence (Q96SW2 whole entry): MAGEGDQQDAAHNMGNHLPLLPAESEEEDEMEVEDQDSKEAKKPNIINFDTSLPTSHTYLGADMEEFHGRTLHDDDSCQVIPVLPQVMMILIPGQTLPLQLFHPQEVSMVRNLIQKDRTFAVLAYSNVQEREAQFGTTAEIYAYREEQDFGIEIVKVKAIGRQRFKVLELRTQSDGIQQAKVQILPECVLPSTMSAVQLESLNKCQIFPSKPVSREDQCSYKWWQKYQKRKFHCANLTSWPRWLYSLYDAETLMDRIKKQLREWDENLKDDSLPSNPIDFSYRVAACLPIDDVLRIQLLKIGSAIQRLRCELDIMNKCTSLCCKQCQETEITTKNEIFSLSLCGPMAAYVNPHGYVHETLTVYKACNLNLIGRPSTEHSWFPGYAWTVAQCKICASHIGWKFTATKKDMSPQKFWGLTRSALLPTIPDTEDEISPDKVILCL
T1 sequence (Q16531 whole entry partner): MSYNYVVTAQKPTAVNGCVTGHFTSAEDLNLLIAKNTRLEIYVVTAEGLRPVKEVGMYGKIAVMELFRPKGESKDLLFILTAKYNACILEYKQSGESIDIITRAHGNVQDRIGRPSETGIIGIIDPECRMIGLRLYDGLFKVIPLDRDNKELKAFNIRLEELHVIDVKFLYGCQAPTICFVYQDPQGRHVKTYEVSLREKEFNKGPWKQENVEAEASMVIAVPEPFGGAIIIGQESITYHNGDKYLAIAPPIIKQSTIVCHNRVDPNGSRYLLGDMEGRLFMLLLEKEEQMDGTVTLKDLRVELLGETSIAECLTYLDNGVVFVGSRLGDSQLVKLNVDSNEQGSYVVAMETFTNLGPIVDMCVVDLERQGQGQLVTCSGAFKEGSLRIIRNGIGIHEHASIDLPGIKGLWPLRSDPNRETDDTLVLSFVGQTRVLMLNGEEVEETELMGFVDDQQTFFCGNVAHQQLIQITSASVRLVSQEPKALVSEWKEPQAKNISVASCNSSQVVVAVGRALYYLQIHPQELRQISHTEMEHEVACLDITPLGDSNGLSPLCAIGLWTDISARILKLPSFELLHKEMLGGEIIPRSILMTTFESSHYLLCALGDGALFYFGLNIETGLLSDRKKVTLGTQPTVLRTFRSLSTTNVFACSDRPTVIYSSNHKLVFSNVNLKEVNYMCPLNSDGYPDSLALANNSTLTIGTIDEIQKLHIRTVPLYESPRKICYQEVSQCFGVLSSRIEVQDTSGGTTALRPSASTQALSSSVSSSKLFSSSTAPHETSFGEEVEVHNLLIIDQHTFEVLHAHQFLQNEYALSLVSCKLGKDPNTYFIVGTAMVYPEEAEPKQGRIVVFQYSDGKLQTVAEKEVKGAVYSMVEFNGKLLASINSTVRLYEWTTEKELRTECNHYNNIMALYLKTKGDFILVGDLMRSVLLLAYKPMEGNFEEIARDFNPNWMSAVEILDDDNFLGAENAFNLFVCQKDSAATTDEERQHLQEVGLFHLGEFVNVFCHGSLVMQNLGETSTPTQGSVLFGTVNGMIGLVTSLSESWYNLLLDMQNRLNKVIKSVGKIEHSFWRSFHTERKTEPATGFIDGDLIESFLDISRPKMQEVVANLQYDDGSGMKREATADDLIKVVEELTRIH
T6 sequence (P15170 whole entry): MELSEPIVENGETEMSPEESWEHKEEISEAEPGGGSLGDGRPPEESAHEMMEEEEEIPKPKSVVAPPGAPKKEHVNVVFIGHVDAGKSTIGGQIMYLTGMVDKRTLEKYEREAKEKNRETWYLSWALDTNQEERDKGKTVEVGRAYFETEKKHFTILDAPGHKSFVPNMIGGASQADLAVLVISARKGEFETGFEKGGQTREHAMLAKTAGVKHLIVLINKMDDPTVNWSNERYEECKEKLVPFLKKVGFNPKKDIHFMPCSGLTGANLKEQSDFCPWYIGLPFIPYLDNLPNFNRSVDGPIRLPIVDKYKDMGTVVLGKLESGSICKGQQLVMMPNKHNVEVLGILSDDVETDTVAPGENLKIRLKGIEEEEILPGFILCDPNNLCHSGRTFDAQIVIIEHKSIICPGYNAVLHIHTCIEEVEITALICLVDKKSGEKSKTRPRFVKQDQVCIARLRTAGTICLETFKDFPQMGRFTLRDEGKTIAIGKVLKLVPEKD
T6 sequence (Q96SW2 whole entry): as the sequence (Q96SW2 whole entry) above
T6 sequence (Q16531 whole entry partner): as the sequence (Q16531 whole entry partner) above
T3 sequence (Q9UKS7 whole entry): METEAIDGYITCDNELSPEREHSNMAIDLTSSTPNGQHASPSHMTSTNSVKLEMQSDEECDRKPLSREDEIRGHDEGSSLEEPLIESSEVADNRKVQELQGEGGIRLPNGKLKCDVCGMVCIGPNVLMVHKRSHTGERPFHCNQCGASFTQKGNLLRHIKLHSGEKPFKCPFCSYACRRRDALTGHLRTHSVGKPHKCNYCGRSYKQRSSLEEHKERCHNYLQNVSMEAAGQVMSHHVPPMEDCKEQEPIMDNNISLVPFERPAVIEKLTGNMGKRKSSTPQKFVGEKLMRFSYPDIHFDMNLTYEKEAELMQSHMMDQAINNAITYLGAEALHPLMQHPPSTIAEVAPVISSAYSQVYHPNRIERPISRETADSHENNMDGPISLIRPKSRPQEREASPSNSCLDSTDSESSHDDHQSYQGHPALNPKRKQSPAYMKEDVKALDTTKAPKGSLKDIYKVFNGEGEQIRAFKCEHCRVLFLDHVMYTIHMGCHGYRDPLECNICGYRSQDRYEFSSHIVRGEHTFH
T3 sequence (Q96SW2 whole entry): as the sequence (Q96SW2 whole entry) above
T3 sequence (Q16531 whole entry partner): as the sequence (Q16531 whole entry partner) above
T2 sequence (Q13422 whole entry): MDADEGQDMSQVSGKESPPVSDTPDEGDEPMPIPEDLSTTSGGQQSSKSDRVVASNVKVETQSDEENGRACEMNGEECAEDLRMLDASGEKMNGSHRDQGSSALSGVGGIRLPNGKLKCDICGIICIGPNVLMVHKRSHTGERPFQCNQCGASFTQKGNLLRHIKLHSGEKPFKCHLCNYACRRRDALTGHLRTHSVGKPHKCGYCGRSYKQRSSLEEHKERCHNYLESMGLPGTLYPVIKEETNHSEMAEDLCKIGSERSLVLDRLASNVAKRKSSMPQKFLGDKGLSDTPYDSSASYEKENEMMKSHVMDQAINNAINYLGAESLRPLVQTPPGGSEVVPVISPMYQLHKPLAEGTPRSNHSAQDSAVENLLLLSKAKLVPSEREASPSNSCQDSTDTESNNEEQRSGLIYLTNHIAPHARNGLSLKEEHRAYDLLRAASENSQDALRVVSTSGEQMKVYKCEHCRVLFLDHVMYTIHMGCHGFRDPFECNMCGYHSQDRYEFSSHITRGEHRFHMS
T2 sequence (Q96SW2 whole entry): as the sequence (Q96SW2 whole entry) above
T2 sequence (Q16531 whole entry partner): as the sequence (Q16531 whole entry partner) above
T4 sequence (Q9UKT9 whole entry): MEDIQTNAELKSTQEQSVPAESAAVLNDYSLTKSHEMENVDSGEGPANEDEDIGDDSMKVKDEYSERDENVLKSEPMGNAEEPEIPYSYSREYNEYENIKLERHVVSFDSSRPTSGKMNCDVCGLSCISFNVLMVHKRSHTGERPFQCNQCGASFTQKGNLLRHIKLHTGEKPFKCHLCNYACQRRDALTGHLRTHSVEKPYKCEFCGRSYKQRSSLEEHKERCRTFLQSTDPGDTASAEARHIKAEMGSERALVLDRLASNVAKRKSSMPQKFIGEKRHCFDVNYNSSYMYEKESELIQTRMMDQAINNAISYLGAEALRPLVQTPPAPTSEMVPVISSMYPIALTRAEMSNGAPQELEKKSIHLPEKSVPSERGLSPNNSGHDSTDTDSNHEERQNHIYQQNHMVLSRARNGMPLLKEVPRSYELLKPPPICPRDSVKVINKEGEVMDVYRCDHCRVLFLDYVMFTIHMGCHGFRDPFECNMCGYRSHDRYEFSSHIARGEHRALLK
T4 sequence (Q96SW2 whole entry): as the sequence (Q96SW2 whole entry) above
T4 sequence (Q16531 whole entry partner): as the sequence (Q16531 whole entry partner) above

O=C1CCN(N2Cc3cc(CN4CCN(c5ccc(F)cn5)CC4)ccc3C2=O)C(=O)N1 [GT-05131, 1-(5-((4-(5-fluoropyridin-2-yl)piperazin-1-yl)methyl)-1-oxoisoindolin-2-yl)dihydropyrimidine-2,4(1H,3H)-dione]
WEE1 substrate protein remaining % (WEE1): A ("A" is defined as 0% ≤ substrate protein remaining % ≤ 80%)
IKZF1 substrate protein remaining % (IKZF1): A ("A" is defined as 0% ≤ substrate protein remaining % ≤ 80%)
IKZF2 substrate protein remaining % (IKZF2): A ("A" is defined as 0% ≤ substrate protein remaining % ≤ 80%)
IKZF3 substrate protein remaining % (IKZF3): A ("A" is defined as 0% ≤ substrate protein remaining % ≤ 80%)
CK1α substrate protein remaining % (CK1α): A ("A" is defined as 0% ≤ substrate protein remaining % ≤ 80%)
GSPT1 substrate protein remaining % (GSPT1): A ("A" is defined as 0% ≤ substrate protein remaining % ≤ 80%)

O=C1CCN(N2Cc3cc(CN4C5CC4CN(c4cccc(Cl)c4Cl)C5)ccc3C2=O)C(=O)N1 [GT-05162, 1-(5-((3-(2,3-dichlorophenyl)-3,6-diazabicyclo[3.1.1]heptan-6-yl)methyl)-1-oxoisoindolin-2-yl)dihydropyrimidine-2,4(1H,3H)-dione]
WEE1 substrate protein remaining % (WEE1): B ("B" is defined as 80%< substrate protein remaining %≤ 100%)
IKZF1 substrate protein remaining % (IKZF1): B ("B" is defined as 80%< substrate protein remaining %≤ 100%)
IKZF2 substrate protein remaining % (IKZF2): B ("B" is defined as 80%< substrate protein remaining %≤ 100%)
IKZF3 substrate protein remaining % (IKZF3): A ("A" is defined as 0% ≤ substrate protein remaining % ≤ 80%)
CK1α substrate protein remaining % (CK1α): B ("B" is defined as 80%< substrate protein remaining %≤ 100%)
GSPT1 substrate protein remaining % (GSPT1): A ("A" is defined as 0% ≤ substrate protein remaining % ≤ 80%)

O=C1CCN(N2C(=O)c3ccc(CN4CCC(N(c5ccccc5)c5ccccc5)CC4)cc3C2=O)C(=O)N1 [GT-05177, 2-(2,4-dioxotetrahydropyrimidin-1(2H)-yl)-5-((4-(diphenylamino)piperidin-1-yl)methyl)isoindoline-1,3-dione]
WEE1 substrate protein remaining % (WEE1): B ("B" is defined as 80%< substrate protein remaining %≤ 100%)
IKZF1 substrate protein remaining % (IKZF1): B ("B" is defined as 80%< substrate protein remaining %≤ 100%)
IKZF2 substrate protein remaining % (IKZF2): B ("B" is defined as 80%< substrate protein remaining %≤ 100%)
IKZF3 substrate protein remaining % (IKZF3): B ("B" is defined as 80%< substrate protein remaining %≤ 100%)
CK1α substrate protein remaining % (CK1α): B ("B" is defined as 80%< substrate protein remaining %≤ 100%)
GSPT1 substrate protein remaining % (GSPT1): A ("A" is defined as 0% ≤ substrate protein remaining % ≤ 80%)

O=C1CCN(N2C(=O)c3ccc(CN4CCC(Nc5ccccc5-c5ccc(Cl)cc5)CC4)cc3C2=O)C(=O)N1 [GT-05179, 5-((4-((4'-chloro-[1,1'-biphenyl]-2-yl)amino)piperidin-1-yl)methyl)-2-(2,4-dioxotetrahydropyrimidin-1(2H)-yl)isoindoline-1,3-dione]
WEE1 substrate protein remaining % (WEE1): A ("A" is defined as 0% ≤ substrate protein remaining % ≤ 80%)
IKZF1 substrate protein remaining % (IKZF1): B ("B" is defined as 80%< substrate protein remaining %≤ 100%)
IKZF2 substrate protein remaining % (IKZF2): B ("B" is defined as 80%< substrate protein remaining %≤ 100%)
IKZF3 substrate protein remaining % (IKZF3): B ("B" is defined as 80%< substrate protein remaining %≤ 100%)
CK1α substrate protein remaining % (CK1α): B ("B" is defined as 80%< substrate protein remaining %≤ 100%)
GSPT1 substrate protein remaining % (GSPT1): B ("B" is defined as 80%< substrate protein remaining %≤ 100%)

CC1(C)CCC(CN2CCN(Cc3ccc4c(c3)C(=O)N(N3CCC(=O)NC3=O)C4=O)CC2)=C(c2ccc(Cl)cc2)C1 [GT-05180, 5-((4-((4'-chloro-5,5-dimethyl-3,4,5,6-tetrahydro-[1,1'-biphenyl]-2-yl)methyl)piperazin-1-yl)methyl)-2-(2,4-dioxotetrahydropyrimidin-1(2H)-yl)isoindoline-1,3-dione]
WEE1 substrate protein remaining % (WEE1): A ("A" is defined as 0% ≤ substrate protein remaining % ≤ 80%)
IKZF1 substrate protein remaining % (IKZF1): B ("B" is defined as 80%< substrate protein remaining %≤ 100%)
IKZF2 substrate protein remaining % (IKZF2): B ("B" is defined as 80%< substrate protein remaining %≤ 100%)
IKZF3 substrate protein remaining % (IKZF3): B ("B" is defined as 80%< substrate protein remaining %≤ 100%)
CK1α substrate protein remaining % (CK1α): B ("B" is defined as 80%< substrate protein remaining %≤ 100%)
GSPT1 substrate protein remaining % (GSPT1): B ("B" is defined as 80%< substrate protein remaining %≤ 100%)

O=C1CCN(N2C(=O)c3ccc(CN4CC=C(c5c[nH]c6ncccc56)CC4)cc3C2=O)C(=O)N1 [GT-05181, 5-((4-(1H-pyrrolo[2,3-b]pyridin-3-yl)-3,6-dihydropyridin-1(2H)-yl)methyl)-2-(2,4-dioxotetrahydropyrimidin-1(2H)-yl)isoindoline-1,3-dione]
WEE1 substrate protein remaining % (WEE1): A ("A" is defined as 0% ≤ substrate protein remaining % ≤ 80%)
IKZF1 substrate protein remaining % (IKZF1): B ("B" is defined as 80%< substrate protein remaining %≤ 100%)
IKZF2 substrate protein remaining % (IKZF2): B ("B" is defined as 80%< substrate protein remaining %≤ 100%)
IKZF3 substrate protein remaining % (IKZF3): B ("B" is defined as 80%< substrate protein remaining %≤ 100%)
CK1α substrate protein remaining % (CK1α): B ("B" is defined as 80%< substrate protein remaining %≤ 100%)
GSPT1 substrate protein remaining % (GSPT1): B ("B" is defined as 80%< substrate protein remaining %≤ 100%)

O=C1CCN(N2C(=O)c3ccc(CN4CC=C(c5cccc(Cl)c5Cl)CC4)cc3C2=O)C(=O)N1 [GT-05249, 5-((4-(2,3-dichlorophenyl)-3,6-dihydropyridin-1(2H)-yl)methyl)-2-(2,4-dioxotetrahydropyrimidin-1(2H)-yl)isoindoline-1,3-dione]
WEE1 substrate protein remaining % (WEE1): B ("B" is defined as 80%< substrate protein remaining %≤ 100%)
IKZF1 substrate protein remaining % (IKZF1): A ("A" is defined as 0% ≤ substrate protein remaining % ≤ 80%)
IKZF2 substrate protein remaining % (IKZF2): B ("B" is defined as 80%< substrate protein remaining %≤ 100%)
IKZF3 substrate protein remaining % (IKZF3): B ("B" is defined as 80%< substrate protein remaining %≤ 100%)
CK1α substrate protein remaining % (CK1α): B ("B" is defined as 80%< substrate protein remaining %≤ 100%)
GSPT1 substrate protein remaining % (GSPT1): A ("A" is defined as 0% ≤ substrate protein remaining % ≤ 80%)

O=C1CCN(N2C(=O)c3ccc(CN4CCC(c5cccc(Cl)c5Cl)CC4)cc3C2=O)C(=O)N1 [GT-05250, 5-((4-(2,3-dichlorophenyl)piperidin-1-yl)methyl)-2-(2,4-dioxotetrahydropyrimidin-1(2H)-yl)isoindoline-1,3-dione]
WEE1 substrate protein remaining % (WEE1): B ("B" is defined as 80%< substrate protein remaining %≤ 100%)
IKZF1 substrate protein remaining % (IKZF1): B ("B" is defined as 80%< substrate protein remaining %≤ 100%)
IKZF2 substrate protein remaining % (IKZF2): A ("A" is defined as 0% ≤ substrate protein remaining % ≤ 80%)
IKZF3 substrate protein remaining % (IKZF3): B ("B" is defined as 80%< substrate protein remaining %≤ 100%)
CK1α substrate protein remaining % (CK1α): B ("B" is defined as 80%< substrate protein remaining %≤ 100%)
GSPT1 substrate protein remaining % (GSPT1): B ("B" is defined as 80%< substrate protein remaining %≤ 100%)
